Here are results for four compounds from patent US8357705B2 (priority 2008, dated 2013).

Series [1] has as its system sodium channel binding site 2. More on the design: species or system rat.

As to `Cc1cnc([C@@H](Cc2c[nH]c3ccccc23)NC2CCC(c3ccccc3)(N(C)C)CC2)o1` (stereo partly shown), the melting point was 65 to 70 °C.
`Cc1csc([C@@H](Cc2c[nH]c3ccccc23)NC2CCC(c3ccccc3)(N(C)C)CC2)n1` (stereo partly shown): the melting point was in the range of 71 to 74 °C.
Take `CN(C)C1(c2ccccc2)CCC(N(C(=O)C(F)(F)F)C(Cc2c[nH]c3ccccc23)c2nnn[nH]2)CC1` (stereo not shown): the melting point lay in the range of 195 to 228 °C.
In the case of `CN(C)C(=O)[C@H](Cc1c[nH]c2ccccc12)NC1CCC(c2ccccc2)(N(C)C)CC1.Cl.Cl` (stereo partly drawn) [Example 6, (S)-2-(4-(dimethylamino)-4-phenylcyclohexylamino)-3-(1H-indol-3-yl)-N,N-dimethylpropanamide dihydrochloride], the “Inhibition (BTX) Mean [% at 10 μM]” value in series [1] is 15%.
